Assay [1] deals with Serine protease 1 (Rattus norvegicus, UniProt P00762). The experiment in a line: Enzyme Assay: Inhibition constant of the compound against Trypsin.
The target of assay [2] is Prothrombin (Rattus norvegicus, UniProt P18292). Kind of assay: Enzyme Assay: Inhibition constant of the compound against Thrombin.
Assay [3] concerns the target Plasminogen (Rattus norvegicus, UniProt Q01177). Kind of assay: Enzyme Assay: Inhibition constant of the compound against Plasmin.

Sequence of Serine protease 1 (P00762 whole entry): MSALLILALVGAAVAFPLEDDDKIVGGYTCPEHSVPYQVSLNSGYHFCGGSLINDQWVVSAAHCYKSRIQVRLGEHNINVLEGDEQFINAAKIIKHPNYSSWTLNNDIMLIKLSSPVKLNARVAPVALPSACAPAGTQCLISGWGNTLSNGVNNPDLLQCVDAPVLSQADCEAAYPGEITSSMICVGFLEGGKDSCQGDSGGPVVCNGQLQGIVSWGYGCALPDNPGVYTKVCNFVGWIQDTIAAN
Sequence of Plasminogen (Q01177 97-581 limits assumed): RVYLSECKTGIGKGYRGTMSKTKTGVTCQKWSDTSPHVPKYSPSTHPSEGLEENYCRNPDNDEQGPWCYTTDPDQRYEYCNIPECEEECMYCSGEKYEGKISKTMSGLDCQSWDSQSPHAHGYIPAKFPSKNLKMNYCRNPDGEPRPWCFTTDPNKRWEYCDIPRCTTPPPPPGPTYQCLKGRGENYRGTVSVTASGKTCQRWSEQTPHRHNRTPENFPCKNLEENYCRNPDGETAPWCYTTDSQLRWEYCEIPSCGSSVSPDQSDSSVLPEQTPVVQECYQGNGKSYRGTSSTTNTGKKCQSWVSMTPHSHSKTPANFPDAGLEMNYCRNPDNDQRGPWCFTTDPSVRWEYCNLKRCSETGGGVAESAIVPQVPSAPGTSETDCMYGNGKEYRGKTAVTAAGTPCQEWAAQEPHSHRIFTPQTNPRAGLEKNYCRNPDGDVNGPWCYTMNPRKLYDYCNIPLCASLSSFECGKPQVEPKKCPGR
Sequence of Plasminogen (Q01177 582-812 limits assumed): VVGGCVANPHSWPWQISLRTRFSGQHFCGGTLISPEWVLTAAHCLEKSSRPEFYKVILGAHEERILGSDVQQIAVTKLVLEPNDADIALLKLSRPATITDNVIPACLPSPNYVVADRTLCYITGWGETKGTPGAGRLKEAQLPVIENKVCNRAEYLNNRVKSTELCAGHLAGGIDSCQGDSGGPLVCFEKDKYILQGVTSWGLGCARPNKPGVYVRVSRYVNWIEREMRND

As to `N=C(N)c1ccc(CNC(=O)[C@H](CCCN=C(N)N)NC(=O)[C@@H](CO)NS(=O)(=O)Cc2ccccc2)cc1`, the Ki in assay [1] was 7 nM.

In the case of `N=C(N)c1ccc(CNC(=O)CNC(=O)[C@@H](CO)NS(=O)(=O)Cc2ccncc2)cc1`, the Ki is 1600 nM in assay [2], 410 nM in assay [1] and 37000 nM in assay [3].

Turning to `N=C(N)c1ccc(CNC(=O)CNC(=O)[C@@H](CO)NS(=O)(=O)Cc2cccc(C(=O)O)c2)cc1`, the affinity in assay [1], expressed as Ki, was 720 nM.

With `N=C(N)c1ccc(CNC(=O)[C@H](CCCCN)NC(=O)[C@@H](CO)NS(=O)(=O)Cc2ccccc2)cc1`, in assay [1], the affinity corresponds to a Ki of 6.8 nM.

`N=C(N)c1ccc(CNC(=O)CNC(=O)[C@@H](CO)NS(=O)(=O)Cc2ccc(CN)cc2)cc1` registered a Ki in assay [1] of 280 nM.

These data come from ChEMBL document CHEMBL3638843, “Urokinase inhibitors, production and use thereof” (2013).
